Where a name gives a salt, the structure may show the parent alone. Read-outs that look alike come from different tables or passages of the source.
Legend:
[1] = test system: Ishikawa; experiment: MTT assay in Ishikawa endometrial adenocarcinoma cells; type: cell-based; settings: Homo sapiens, Ishikawa, Table 6, 48 h, 10 point dose response
[2] = test system: SW620; experiment: Sulphorhodamine B assay in SW620 colon cancer cells; type: cell-based; settings: Homo sapiens, SW-620; SRB assay
[3] = test system: K562; experiment: Differentiation of K562 cells (Wright-Giemsa staining); type: cell-based; settings: 0.5 μM; 3, 6 and 12 days
Text: In order to clarify whether the inhibitory effects of Centans on the growth and cell cycle of K562 cells was followed by differentiation, Centans treated cells was stained with Wright-Giemsa stain. […] This differentiation was much more pronounced at 12d, where mature megakaryocytes were visible (FIG. 4A). Confirmation of Centans-mediated megakaryocytic differentiation was attained through measurement of expression of relevant cell differentiation markers by quantitative real time PCR. mRNA expression levels of cluster of differentiation 10 (CD10) (transiently present during B-cell maturation at early-B and pre-B lymphoblastic stages and related to megakaryocytic differentiation), CD36 (erythroid differentiation lineage), GATA2 (Over expression of GATA-2 inhibits erythroid and promotes megakaryocyte differentiation) and CD61 (megakaryocytic differentiation marker) was measured.
FIG. 4. CentANS induces Differentiation in K562 cells. […] (B) Expression of differentiation Markers—K562 cells were treated with vehicle; V (DMSO) or centANS and mRNA from these cells were isolated and reverse transcribed. cDNA was used to measure the expression CD10, GATA2, CD61, (megakaryocytic lineage markers) and CD36 (Erythroid lineage marker) by Quantitative Real time PCR, GAPDH was used as control. […]

[4] = test system: K562; experiment: Cell cycle analysis (PI staining, flow cytometry) in K562; type: cell-based; settings: 0.5 μM
Method: Propidium iodide (PI) staining of K562 cells (A) and HL-60 cells (B) treated with vehicle (DMSO) or 0.5 μM Centans, followed by flow cytometry analysis to find % distribution of cells in different phases of the cell cycle. Data has been shown as percent of total cells from data pooled from three independent experiments. (C and D). mRNA expression of cell cycle regulatory factors—K562 (C) or HL-60 (D) cells were treated with Vehicle or Centans, followed by mRNA isolation and cDNA preparation and quantitative real-time PCR (p21, p27 and cyclin D1). Graphs represented pooled data from three independent experiments. *P<0.05, **P<0.01,***P<0.001 compared to vehicle treated control.

[5] = test system: HL60; experiment: MTT cytotoxicity assay in HL-60 cells; type: cell-based; settings: Homo sapiens
[6] = test system: HCT116; experiment: Sulphorhodamine B assay in HCT116 colon cancer cells; type: cell-based; settings: Homo sapiens, HCT-116; SRB assay
[7] = target: T1, EGFR (Homo sapiens, UniProt P00533); experiment: EGF dependent EGFR phosphorylation ELISA in MCF-7 cells; type: cell-based; settings: EGF stimulated, Tyr1068, ELISA, read-out: IC50 in terms of EGFR phosphorylation
T1 construct: Serum starved (A,C) MCF-7 cells and (B,D) MDA-MB231 cells were pre-incubated for 1 h; endogenous in cells; host or cells: MCF-7
T1 sequence (P00533 25-1210): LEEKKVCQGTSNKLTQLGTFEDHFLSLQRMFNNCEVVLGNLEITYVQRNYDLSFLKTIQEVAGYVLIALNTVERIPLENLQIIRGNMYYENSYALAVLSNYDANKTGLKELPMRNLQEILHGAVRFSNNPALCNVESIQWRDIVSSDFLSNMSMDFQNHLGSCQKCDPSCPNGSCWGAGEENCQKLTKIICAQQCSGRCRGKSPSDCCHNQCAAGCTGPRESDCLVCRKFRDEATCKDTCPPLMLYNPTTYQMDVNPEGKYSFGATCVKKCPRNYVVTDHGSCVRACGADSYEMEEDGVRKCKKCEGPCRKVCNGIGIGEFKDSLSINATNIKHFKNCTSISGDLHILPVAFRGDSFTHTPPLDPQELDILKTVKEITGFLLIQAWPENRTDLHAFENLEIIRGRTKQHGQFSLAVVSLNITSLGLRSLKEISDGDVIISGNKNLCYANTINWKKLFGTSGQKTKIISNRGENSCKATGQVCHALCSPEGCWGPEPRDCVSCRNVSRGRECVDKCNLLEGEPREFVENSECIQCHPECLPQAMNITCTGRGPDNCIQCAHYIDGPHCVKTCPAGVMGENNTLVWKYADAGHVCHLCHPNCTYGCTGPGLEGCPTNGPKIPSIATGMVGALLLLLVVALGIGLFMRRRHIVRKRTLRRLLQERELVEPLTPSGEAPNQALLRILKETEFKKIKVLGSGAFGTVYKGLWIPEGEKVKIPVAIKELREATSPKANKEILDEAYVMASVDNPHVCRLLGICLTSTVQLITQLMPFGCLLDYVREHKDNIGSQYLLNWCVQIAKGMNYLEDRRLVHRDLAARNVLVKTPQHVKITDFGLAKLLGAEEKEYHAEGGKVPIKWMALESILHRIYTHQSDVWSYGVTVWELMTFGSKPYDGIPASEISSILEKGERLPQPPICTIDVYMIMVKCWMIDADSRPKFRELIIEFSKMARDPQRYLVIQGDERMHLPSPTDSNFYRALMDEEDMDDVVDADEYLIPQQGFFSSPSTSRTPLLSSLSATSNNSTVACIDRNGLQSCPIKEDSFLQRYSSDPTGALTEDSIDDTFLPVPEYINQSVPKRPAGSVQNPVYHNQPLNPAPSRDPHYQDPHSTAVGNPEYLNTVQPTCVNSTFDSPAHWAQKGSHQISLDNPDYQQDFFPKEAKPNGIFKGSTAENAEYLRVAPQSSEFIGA
Method: Since EGFR and Her2 play major roles in breast cancer development and metastatis, the effect of Centans on regulation of these two factors was evaluated in MCF-7 and MDA-MB-231 cells by enzyme-linked immunosorbant assays (ELISA). As depicted in FIGS. 7. A and B, EGF dependent EGFR phosphorylation at Tyr^1068 was strongly attenuated by Centans in both MCF-7 and MDA-MB-231 cells and this effect was much stronger than that of Gefitinib (marketted EGFR inhibitor/anti-cancer drug).
FIG. 7. Inhibition of EGFR and Her2 phosphorylation by Centans in MCF-7 and MDA-MB231 cells. Serum starved (A,C) MCF-7 cells and (B,D) MDA-MB231 cells were pre-incubated for 1 h with the indicated concentrations of Centans prior to stimulation with EGF for 15 min and EGFR (A and B) or Her2 (C and D) phosphorylation were measured by ELISA. Gef=Gefitinib. All doses are in μM.

[8] = test system: PBMCs isolated from BCR-ABL-positive CML patients; experiment: MTT cytotoxicity in PBMCs from BCR-ABL-positive CML patients; settings: 1 μM, 48 h; for % cell death, Average: group average
[9] = test system: DLD1; experiment: Sulphorhodamine B assay in DLD1 colon cancer cells; type: cell-based; settings: Homo sapiens, DLD-1; SRB assay
[10] = test system: MDA-MB231; experiment: Annexin V/PI apoptosis flow cytometry in MDA-MB231; type: cell-based; settings: 24 h
Method: To assess if the cell death induced by centans in MCF-7 and MDA-MB231 lines is apoptotic in nature, apoptosis was measured by flow cytometry using annexin V/PI staining kit from Sigma according to manufacturer's instructions.
FIG. 6 Apoptosis induction by Centans in breast cancer cells. Annexin V/PI staining of (A) MCF-7 and (B) MDA-MB231 cells were treated with vehicle (DMSO) or Centans at indicated concentrations for 24 h and […] was assessed by flow cytometry using the FL1-H channel (Annexin-V) and FL2-H channel (PI) of a Becton Dickinson FACS Calibur. Shown are representative dot plots. Quantification of flow cytometry data shown as percent of total cells (right panel). Data presented as mean±SEM from three independent experiments; *P<0.05, **P<0.01, and ***P<0.001 compared to control.

[11] = test system: MCF-7; experiment: MTT assay in MCF-7 breast tumor cells; type: cell-based; settings: Homo sapiens, MCF7, Table 6, 48 h, 10 point dose response

IC50 [1]: 12 µM
IC50 [2]: 8.78 µM
IC50 [6]: 7.7 µM
IC50 [7]: 0.0147 µM
IC50 [9]: 15.6 µM
IC50 [11]: 7.5 µM
SMILES: CCN(CC)CCO/N=C(/c1ccc(SC)cc1)c1cccc2ccccc12 [Compound 5d, (4-(methylthio)phenyl)(naphthalen-1-yl)methanone O-2-(diethylamino)ethyl oxime oxalate]
differentiation of K562 cells [3]: capable of inducing differentiation in K562 cells in a dose-dependent manner
cell cycle distribution [4]: G1 and apoptotic sub-populations were significantly increased
IC50 ([5]; HL-60, 48 h, Table 3, MTT, 48 h, 10 point dose response, read-out: IC 50 HL 60): 5.99 µM
IC50 ([5]; HL-60, Table 2): 5.99 µM
% cell death ([8]; freshly diagnosed patient P1): 68.82%
% cell death ([8]; freshly diagnosed patient P10): 73.32%
% cell death ([8]; freshly diagnosed patient P11): 55.61%
% cell death ([8]; freshly diagnosed patient P15): 71.19%
% cell death, Average ([8]; freshly diagnosed): 67.235%
% cell death ([8]; imatinib resistant patient P2): 69.46%
% cell death ([8]; imatinib resistant patient P13): 70.03%
% cell death ([8]; imatinib resistant patient P14): 77.68%
% cell death ([8]; imatinib resistant patient P17): 78.93%
% cell death ([8]; imatinib resistant patient P18): 64.49%
% cell death, Average ([8]; imatinib resistant): 72.118%
% cell death ([8]; imatinib treated/responder patient P3): 50.92%
% cell death ([8]; imatinib treated/responder patient P12): 62.41%
% cell death ([8]; imatinib treated/responder patient P16): 76.59%
% cell death, Average ([8]; imatinib treated/responder): 63.31%
apoptotic cell population [10]: concentration-dependent increase in apoptotic cell population

Reference: patent US9994515B2, “Aryl naphthyl methanone oxime(s) and process for preparation thereof” (Council of Scientific & Industrial Research, priority 2013, dated 2018)
